Laboratory results as given in article PMC7358525, “Characterization of PF-6142, a Novel, Non-Catecholamine Dopamine Receptor D1 Agonist, in Murine and Nonhuman Primate Models of Dopaminergic Activation” (Frontiers in Pharmacology, 2020).
Counter-ions that a name gives are not always drawn.

How the values were obtained:
[1] = test system: ketamine-induced working memory deficits; assay: Spatial delayed response (SDR) task in the nonhuman primate; assay type: in vivo, rhesus monkeys; details: ketamine 0.7-1.7 mg/kg i.m.; baseline 70.63 ± 1.75%
Text: This study was designed to test the hypothesis that PF-6142 would provide significant protection versus the ketamine-induced working memory deficits in nonhuman primates.
Rhesus monkeys were trained to stability on a variable SDR task in a sound-attenuated Wisconsin General Testing Apparatus ([Roberts et al., 2010]). Briefly, subjects observe while the investigator baiting one of two to seven wells with a highly preferred food reward and then covers all the wells with identical square plaques. An opaque screen is then lowered for one of five variable delays, which are pseudorandomized across trials within a session. Thus, delays are defined as 0–4 N, where “N” is a value that is animal dependent and ranges from 1 to 10 s depending upon the difficulty level of the task at which an animal reaches the criterion of stable performance. At the end of the delay period, the opaque screen is raised, and the animal must select the well that had been baited to obtain a reward. Each test session consists of 20 trials wherein both the baited well and delay length are pseudorandomized across trials. Before study initiation, all subjects were required to reach stability over a period of 10 consecutive test sessions, where stability was defined as an average of 65–75% correct. Stability was attained by varying the number of wells and the delay value for each animal. Subjects were originally trained on a two-well board with an N value of 1. […] Once stability was attained for a given number of wells and N value, that combination was kept constant throughout the course of the study ([Roberts et al., 2010]). The range of stable performance for the 10 subjects was two to five wells and an N value of 1–7 s (median, four-well testing board, N = 5 s). Data were transformed using logarithmic function [log(x+5)] to improve normality and analyzed using ANOVA.
Subjects received pretreatment with vehicle (sterile saline solution) or PF-6142 (0.0015, 0.015, 0.15 mg/kg, s.c.) 4 h before cognitive testing. They then received an intramuscular injection of either vehicle (sterile saline) or ketamine (0.7–1.7 mg/kg; Fort Dodge Co.) 0.25 h before cognitive testing. […] Thus, for the present study, one monkey received 0.7 mg/kg, seven monkeys received 1.0 mg/kg, and two monkeys received 1.7 mg/kg of ketamine. The vehicle/PF-6142 and vehicle/ketamine treatments were assigned using a randomized Latin square design with a total of eight conditions. Except for the vehicle/vehicle condition, there was a minimum 2-week washout period between all acute challenges during which time animals were required to “restabilize” to baseline performance levels, which was defined as at least three consecutive testing sessions wherein cognitive performance ranged between 65% and 75% correct.

[2] = test system: ketamine-induced working memory deficits; assay: Ketamine-disrupted radial arm maze (RAM); assay type: in vivo, rat; details: ketamine 10 mg/kg s.c.
Text: Two cohorts of adult male Long-Evans rats (N=30 each) were trained in a spatial working memory task on an eight-arm RAM, (Pathfinder Maze System, Lafayette Instrument Co., Lafayette, IN), using a procedure adapted from [Ward et al. (1990)] and described in detail in [Strick et al. (2011)]. Briefly, rats were food-restricted to provide motivation to perform the RAM task. The task requires that the animals enter each arm to retrieve a reinforcement food pellets, using spatial cues in the room to remember which arms of the maze they have previously entered. Rats were individually placed on the maze and allowed to navigate until all eight arms were entered and the pellets were consumed or until 30 choices were made, or until 5 min had elapsed. Entry into an arm previously entered was counted as an error. […] Training continued until all animals had reached the training criterion, defined as two or fewer errors on two consecutive days. […] Performance on the maze was evaluated 30 min later by an observer that was blinded to treatments.
The R 3.0.1 statistical software was used to compare the error rate data. The effects of treatment and the interaction on the error rate were assessed using a one-way mixed model ANOVA using generalized least squares method from lme4 library. […]

Question: How did the “percent correct on the SDR task” value [1] turn out when `CNC1(c2ccccc2Cl)CCCCC1=O` (centres unmarked) [ketamine, ketamine hydrochloride, reference compound] was run?
Answer: Its value is 28.75 ± 2.45%.

Question: And the “error rate (errors/choices) in RAM” value [2]?
Answer: The value was “robust increase in error rate”.
